Data published in patent publication US20200199170A1, “COMPOUNDS HAVING ANTI-INFLAMMATORY AND ANTI-OXIDANT ACTIVITY” (UNIVERSITÀ DEGLI STUDI DI FERRARA, priority 2015, published 2020).

Columns and labels:
[1] = Photochemiluminescence antioxidant test (Photochem, luminol); settings: superoxide radical, FIG. 2
Method: For the study of the antioxidant activity, use was made of a photochemiluminescence test that allows evaluating the antioxidant capacity of the tested molecules with respect to the superoxide radical (O2^−); the latter is photochemically generated by means of UV radiations. The marker used is luminol, a molecule that is capable of emitting chemiluminescence when it is oxidized by free radicals; such emission of light is then measured by means of a suitable instrument (Analityk Jena AG: Photochem®—Antioxidants and Free Radicals). The presence of antioxidant substances in the reaction admixture deactivates the radical species by inhibiting the emission of chemiluminescence. The analysis is very rapid and sensitive. […]
Since the antioxidant activity cannot be measured in absolute terms, the common practice is to compare the activity of a compound with that of molecules having an antioxidant capacity that is already known, such as, for example, tocopherol (otherwise known as vitamin E). By comparing the recorded values with the measurements relating to the standard reference molecules ([…]), the antioxidant capacity of the product being examined is obtained.

[2] = tested on: neuronal cells; test: Neuro-protective activity, MTT assay, glutamate-induced death; assay type: cell-based; settings: FIG. 3; for neuro-protective activity on the death of neuronal cells caused by glutamate: MTT assay, pre-treatment before glutamate; for viability of the cells: neuronal cells, pre-treatment with compound then glutamate, MTT
[3] = tested on: IL-1α gene expression in human keratinocytes; test: Real-time PCR quantification of gene expression in TNF-α stimulated keratinocytes; assay type: cell-based; settings: keratinocytes pre-treated with compound, then TNF-α; FIG. 1B
Method: (§1) The cells (human keratinocytes acquired from Life Technologies) have been pretreated for 24 hours with 1A or 1B and subsequently stimulated with cytokines, otherwise referred to as Tumor Necrosis Factor, TNF-α, in order to mimic an inflammatory process.
The cell response has also been set out by means of real-time PCR measurements, which are intended to quantify the gene expression (the production of IL-1α is an activity that is codified by specific genes). In FIG. 1B, the so-called “control” is the response of the non-stimulated cells (absence of inflammatory process), “TNF-α” is the response of the cells stimulated with cytokine, while “1A+TNF-α” and “1B+TNF-α” are the responses obtained with the cells pre-treated with 1A and 1B, respectively.

[4] = tested on: cell production of interleukin-1 (IL-1α) in human keratinocytes stimulated with TNF-α; test: Anti-inflammatory activity: IL-1α production in keratinocytes stimulated with TNF-α; assay type: cell-based; settings: human keratinocytes pretreated 24 hours with 10 μM solution, then TNF-α; negative control DMSO; FIG. 1A
Method: as §1
TNF-α induces inflammation in the cells treated, that is to say, the cell production of interleukin-1 (IL-1α).

SMILES | moles having the antioxidant activity of 1 mole of ascorbic acid [1] | neuro-protective activity on the death of neuronal cells caused by glutamate [2] | viability of the cells [2] | gene expression (real-time PCR) [3] | cell production of IL-1α [4]
Cc1ccc(O)c2c1CCC1C3CC[C@](O)(C(=O)CO)[C@@]3(C)CC(=O)[C@@]21O (stereo partly shown) [1A] | 1.09 mol | have a neuro-protective activity | ~80% | absence of gene expression | comparable with that of the negative control
Cc1ccc(O)c2c1CCC1C3CC[C@](O)(C(O)CO)[C@@]3(C)CC(=O)[C@@]21O (stereo partly shown) [1B] | 1.18 mol | have a neuro-protective activity | ~80% | absence of gene expression | comparable with that of the negative control
